# Where two headings read alike, the source gives them in different places.
# Assays:
# ZR-75-1 cell line = assay: H2DCFDA intracellular ROS measurement, ZR-75-1; format: cell-based, human; settings: 10 μM, 30 min incubation, control 100 ± 11, mean and SD, below statistical significance
# Method: Having established these premises, we repeated the measurements using the ROS-sensitive probe H2DCFDA instead of DCFDA. We have observed small, but statistically significant difference between the HT-1080 cells treated by GO-203 and control cells. Specifically, 30 min after application of the peptide the fluorescence signal from the treated cells was ca. 20% lower than the control, 82 ± 6 vs. 100 ± 7 (arbitrary units). The drop in fluorescence from cells that have been treated with GO-203 should be unequivocally attributed to the decreased level of ROS. The effect is small and unlikely to be the source of GO-203 cytotoxic activity. […] The detected drop in ROS level was below the level of statistical significance, 98 ± 3 vs. 100 ± 11 (see Fig. S3). […]
# The cells were seeded into 35-mm Nunc culture dishes (Thermo Scientific, USA) at 1.2 × 10^5 cells per dish and allowed to attach for 24 h. […] After that GO-203 was added directly to the suspension and cell fluorescence was measured by flow cytometry at multiple time points during the following 2 hours. […] Cell fluorescence was then immediately measured by flow cytometry. […]
# Cell fluorescence was measured using CytoFLEX (Beckman Coulter, USA) flow cytometer equipped with 3 lasers (405, 488 and 633 nm). […] Mean fluorescence intensity from 10,000 cells was acquired. […]
# [1] = system: human lung carcinoma cell line A549; assay: MTS cell viability assay, A549; format: cell-based
# Method: All experiments were conducted in duplicate or triplicate.
# [2] = system: human fibrosarcoma cell line HT-1080; format: cell-based; settings: HT-1080
# HT-1080 cells = assay: Caspase 3/7 activation assay (CellEvent / SYTOX), HT-1080; format: cell-based, human; settings: 10 μM, 4 h, Fig. 4B
# Excerpt: A complementary perspective on GO-203-induced apoptosis is provided by the caspase 3/7 activation assay, Fig. 4. In both HT-1080 and ZR-75-1, the data offer a clear view of the early and late apoptotic populations. The time dependence illustrated in Fig. 4E,F confirms that the onset of apoptosis occurs sufficiently rapidly in both cell lines – by the time of flow-cytometry observations the system has already approached the steady state. In the literature there is some evidence that activation of executioner caspases may precede the translocation of phosphatidylserine to the outer leaf of the membrane. While this could be in principle relevant for comparison between the Annexin V assay and caspase activation assay, one should bear in mind that in our case both assays offer a snapshot of a fairly advanced apoptotic process.
# Figure 4 GO-203-induced apoptosis in HT-1080 and ZR-75-1 cells as assessed by the double staining with CellEvent caspase-3/7 green detection reagent and vital dye SYTOX. (A–D) Flow cytometry histograms for the cells incubated for 4 h with 10 μM of GO-203 and the untreated (control) cells. (E–G) Apoptotic fractions in the GO-203-treated and untreated (control) cells as a function of incubation time and GO-203 concentration. TEXT PRINTED IN THE PICTURE: (B) GO-203: HT-1080: IV.(0.11 %); HT-1080: III.(64.49 %); HT-1080: I.(12.21 %); HT-1080: II.(23.20 %) | (D) GO-203: ZR-75-1: IV.(0.40 %); ZR-75-1: III.(35.18 %); ZR-75-1: I.(28.95 %); ZR-75-1: II.(35.47 %)
# The adherent cells were rinsed with PBS, harvested using trypsin-EDTA solution and suspended in the growth medium. To analyze cell cycle phase distribution, 200 μg/ml of saponin (Fluka, USA), 250 μg/ml RNase A, and 50 μg/ml of propidium iodide (both Sigma-Aldrich, USA) were added to each sample tube, thus obtaining DNA stain buffer. After 1 h incubation at room temperature, the samples were analyzed by flow cytometry. To detect apoptosis by flow cytometry, CellEvent Caspase-3/7 Green Flow Cytometry Assay Kit (Thermo Fisher Scientific, USA) and Annexin-V FITC conjugate (BD Biosciences, USA) in combination with propidium iodide have been employed following the manufacturer’s protocols.
# Cell fluorescence was measured using CytoFLEX (Beckman Coulter, USA) flow cytometer equipped with 3 lasers (405, 488 and 633 nm). Cells were gated on FSC/SSC to remove debris. Mean fluorescence intensity from 10,000 cells was acquired.
# [3] = 1 × 5: single dose of 5 μM, 96 h
# [4] = 4/5: four daily doses of 5 μM with exchanged growth medium, 96 h
substance,measurement,setting,value
"[R]9CQCRRKN [GO-203, in clinical trials]",H2DCFDA fluorescence signal (ROS level),ZR-75-1 cell line,98 ± 3 arbitrary units
same,Cell viability (MTS),[1]; [3],essentially inconsequential
same,Cell viability (MTS),"[1]; 1 × 20: single dose of 20 μM, 96 h",substantially cytotoxic
same,Cell viability (MTS),[1]; [4],inefficient
same,Cell viability (MTS),"[1]; 4 × 5: four daily doses of 5 μM without exchanging growth medium, OD 492 nm 96 h after first application",considerable damage
same,Cell viability (MTS),[2]; [3],essentially inconsequential
same,Cell viability (MTS),"[2]; 1 × 10: single dose of 10 μM, 96 h",nearly wipes out
same,Cell viability (MTS),[2]; [4],inefficient
same,Cell viability (MTS),"[2]; 4 × 5: four daily doses of 5 μM without exchanging growth medium, OD 492 nm 96 h after first application, duplicate or triplicate",essentially complete cell death
same,quadrant I fraction (caspase-3/7 / SYTOX),HT-1080 cells,12.21%
same,quadrant II fraction (caspase-3/7 / SYTOX),HT-1080 cells,23.20%
same,quadrant III fraction (caspase-3/7 / SYTOX),HT-1080 cells,64.49%
same,quadrant IV fraction (caspase-3/7 / SYTOX),HT-1080 cells,0.11%
